# According to patent publication US6514945B1, “Azalide antibiotic compositions” (Pfizer Inc., priority 2000, dated 2003):
# Test: Equilibration of azalide isomers I and II in heated aqueous acid, monitored by HPLC (Table 1)
# Type: physicochemical
# Settings: isomer I prior to equilibration, for comparison
# Description: The equilibrium ratio of isomers I and II (about 90%±4% to about 10%±4%, respectively) was consistent for all experiments. […] Without being bound by any theory, lower equilibration temperatures or lower pH values generally result in substantially longer equilibration times. Equilibration time can also depend on, inter alia, the concentration of starting material, and the type and concentration of the acid used. Isomer I at a concentration of up to about 300 mg per mL of composition was heated to a temperature of about 40° C. to about 80° C. in the presence of one or more acids at a concentration of about 0.2 mmol to about 1.0 mmol per mL of mixture and with a sufficient quantity of hydrochloric acid to achieve a pH of about 6.5 to about 7.5 for up to about 20 hours to produce an equilibrium mixture of isomers that is about […] pure. Equilibration kinetic parameters and impurity levels for equilibration of azalide isomers I and II were determined as a function of pH, equilibration temperature, type of acid, and isomer I concentration and are listed in Table 1. […]
# Equilibrium mixtures of isomers were prepared and assayed as follows. […] 100 mL of solution were prepared in each of experiments 25C-28C, 200 mL of solution were prepared in each of experiments 29C-30C, and equilibration was monitored from 0.5 mL aliquots removed from the solutions. […]
smiles,measurement,value
"CCCNC[C@]1(O)[C@H](C)O[C@@H](O[C@H]2[C@H](C)[C@@H](OC3O[C@H](C)C[C@H](N(C)C)[C@H]3O)C(C)(O)C[C@@H](C)CN[C@H](C)[C@@H](O)[C@](C)(O)[C@@H](CC)OC(=O)[C@@H]2C)C[C@@]1(C)OC (single isomer, unassigned) [isomer I]",% Equilibrium mixture of isomers,98.39%
same,% Impurities,1.61%
